By IC50 is commonly meant the concentration that inhibits the measured activity by half.

The target in the first assay is ATM (Homo sapiens (Human), UniProt Q13315). Nature of the assay: biochemical.
ATM, sequence (Q13315 whole entry, looked up): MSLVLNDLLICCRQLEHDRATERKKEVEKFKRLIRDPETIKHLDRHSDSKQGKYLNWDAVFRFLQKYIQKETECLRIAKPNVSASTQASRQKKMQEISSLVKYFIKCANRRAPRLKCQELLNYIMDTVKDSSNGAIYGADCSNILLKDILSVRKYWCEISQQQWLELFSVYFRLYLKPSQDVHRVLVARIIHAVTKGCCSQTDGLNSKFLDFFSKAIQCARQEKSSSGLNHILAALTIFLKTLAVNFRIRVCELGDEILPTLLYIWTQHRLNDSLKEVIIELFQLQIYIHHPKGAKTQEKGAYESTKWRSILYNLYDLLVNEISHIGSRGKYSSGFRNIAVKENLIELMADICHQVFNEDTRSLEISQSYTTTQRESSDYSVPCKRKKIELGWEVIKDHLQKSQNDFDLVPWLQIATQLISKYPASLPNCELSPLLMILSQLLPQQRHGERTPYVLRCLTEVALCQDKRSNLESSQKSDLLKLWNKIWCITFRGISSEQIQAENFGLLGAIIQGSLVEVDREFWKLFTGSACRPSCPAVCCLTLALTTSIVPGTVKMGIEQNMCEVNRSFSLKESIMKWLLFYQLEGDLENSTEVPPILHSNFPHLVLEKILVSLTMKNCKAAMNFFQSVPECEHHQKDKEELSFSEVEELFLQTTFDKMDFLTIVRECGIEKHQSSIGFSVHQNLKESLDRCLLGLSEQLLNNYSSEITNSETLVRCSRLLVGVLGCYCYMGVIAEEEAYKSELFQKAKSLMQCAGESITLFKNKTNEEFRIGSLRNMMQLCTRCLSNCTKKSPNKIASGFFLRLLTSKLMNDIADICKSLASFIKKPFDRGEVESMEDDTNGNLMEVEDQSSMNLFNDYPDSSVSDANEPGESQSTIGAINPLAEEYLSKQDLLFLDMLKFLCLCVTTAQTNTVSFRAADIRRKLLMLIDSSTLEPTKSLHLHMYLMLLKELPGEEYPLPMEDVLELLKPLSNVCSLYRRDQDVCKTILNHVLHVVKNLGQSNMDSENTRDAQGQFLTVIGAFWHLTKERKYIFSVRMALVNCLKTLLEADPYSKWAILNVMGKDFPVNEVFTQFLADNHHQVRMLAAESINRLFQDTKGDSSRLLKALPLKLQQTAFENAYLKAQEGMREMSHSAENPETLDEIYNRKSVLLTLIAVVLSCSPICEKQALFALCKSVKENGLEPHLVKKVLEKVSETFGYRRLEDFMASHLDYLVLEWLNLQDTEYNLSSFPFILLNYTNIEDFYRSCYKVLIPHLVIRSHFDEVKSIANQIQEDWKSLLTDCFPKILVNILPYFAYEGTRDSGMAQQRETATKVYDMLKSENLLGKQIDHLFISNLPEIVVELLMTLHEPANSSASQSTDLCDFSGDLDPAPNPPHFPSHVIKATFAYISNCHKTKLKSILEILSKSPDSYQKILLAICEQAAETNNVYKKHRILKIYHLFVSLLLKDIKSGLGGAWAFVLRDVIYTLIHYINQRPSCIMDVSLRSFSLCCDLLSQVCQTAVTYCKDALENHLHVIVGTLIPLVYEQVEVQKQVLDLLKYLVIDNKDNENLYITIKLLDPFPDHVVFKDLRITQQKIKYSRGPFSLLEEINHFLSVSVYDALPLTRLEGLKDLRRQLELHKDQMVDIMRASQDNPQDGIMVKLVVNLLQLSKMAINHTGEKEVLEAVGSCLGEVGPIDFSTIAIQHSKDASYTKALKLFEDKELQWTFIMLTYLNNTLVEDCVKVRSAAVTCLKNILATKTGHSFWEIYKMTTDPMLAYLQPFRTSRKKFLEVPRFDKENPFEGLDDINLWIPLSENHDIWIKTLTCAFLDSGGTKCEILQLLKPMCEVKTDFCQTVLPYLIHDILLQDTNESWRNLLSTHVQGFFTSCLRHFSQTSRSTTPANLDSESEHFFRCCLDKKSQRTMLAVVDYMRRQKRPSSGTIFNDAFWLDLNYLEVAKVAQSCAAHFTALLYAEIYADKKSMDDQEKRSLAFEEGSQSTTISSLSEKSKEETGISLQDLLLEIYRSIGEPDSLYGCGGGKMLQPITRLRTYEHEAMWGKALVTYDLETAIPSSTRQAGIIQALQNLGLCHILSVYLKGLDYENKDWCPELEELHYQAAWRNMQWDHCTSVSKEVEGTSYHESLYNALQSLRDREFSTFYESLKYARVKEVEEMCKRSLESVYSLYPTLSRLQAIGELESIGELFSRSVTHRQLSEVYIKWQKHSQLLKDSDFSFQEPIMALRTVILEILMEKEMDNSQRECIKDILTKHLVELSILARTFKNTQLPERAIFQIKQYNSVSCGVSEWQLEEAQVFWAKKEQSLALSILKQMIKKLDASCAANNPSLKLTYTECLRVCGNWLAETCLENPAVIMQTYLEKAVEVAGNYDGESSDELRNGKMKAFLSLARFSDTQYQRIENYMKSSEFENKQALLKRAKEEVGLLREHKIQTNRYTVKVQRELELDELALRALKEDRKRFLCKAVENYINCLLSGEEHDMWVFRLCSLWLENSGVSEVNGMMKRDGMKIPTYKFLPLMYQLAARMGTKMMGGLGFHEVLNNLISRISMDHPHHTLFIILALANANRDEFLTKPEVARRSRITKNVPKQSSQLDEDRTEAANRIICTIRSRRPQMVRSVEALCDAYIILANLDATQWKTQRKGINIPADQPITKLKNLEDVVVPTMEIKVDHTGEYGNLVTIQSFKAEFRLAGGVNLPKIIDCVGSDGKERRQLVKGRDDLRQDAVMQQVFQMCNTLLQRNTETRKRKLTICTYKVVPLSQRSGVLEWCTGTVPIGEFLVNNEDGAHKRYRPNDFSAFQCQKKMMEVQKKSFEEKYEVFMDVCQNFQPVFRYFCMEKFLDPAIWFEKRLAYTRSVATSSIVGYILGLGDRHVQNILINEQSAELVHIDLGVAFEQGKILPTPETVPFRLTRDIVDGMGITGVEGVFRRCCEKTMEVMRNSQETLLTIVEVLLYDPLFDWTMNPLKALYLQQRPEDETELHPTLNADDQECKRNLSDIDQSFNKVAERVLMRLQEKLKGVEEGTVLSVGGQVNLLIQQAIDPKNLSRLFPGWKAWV
Details: not given
It is filed as biochemical. The text has this: Assay a): ATM Biochemical Potency
Data was collected by Caliper.
In turn, `CO[C@H]1C[C@H](n2c(=O)n(C)c3nnc4ccc(-c5ccc(COCCN6CCC7(CC7)C6)nc5)cc4c32)C1` [Example 159, 8-(6-((2-(5-azaspiro[2.4]heptan-5-yl)ethoxy)methyl)pyridin-3-yl)-1-(trans-3-methoxycyclobutyl)-3-methyl-1H-imidazo[4,5-c]cinnolin-2(3H)-one] had an IC50 of 20.6 nM.

The assay is the same for the next values; noted with them: read-out: ATM IC50.
For the molecule `C[C@@H](OCCN1CC[C@@H](OC2CC2)C1)c1ccc(-c2ccc3nnc4c(c3c2)n(C2CCOCC2)c(=O)n4C)cn1` [Example 122, 8-(6-((R)-1-(2-((R)-3-cyclopropoxypyrrolidin-1-yl)ethoxy)ethyl)pyridin-3-yl)-3-methyl-1-(tetrahydro-2H-pyran-4-yl)-1H-imidazo[4,5-c]cinnolin-2(3H)-one], the half-inhibitory concentration (IC50) was 4.3 nM. Same read-out and setting: the figure for `C[C@@H]1CCN(CCO[C@H](C)c2ccc(-c3ccc4nnc5c(c4c3)n(C3CCOCC3)c(=O)n5C)cn2)C1` [Example 123, 3-methyl-8-(6-((R)-1-(2-((R)-3-methylpyrrolidin-1-y)ethoxy)ethyl)pyridin-3-yl)-1-(tetrahydro-2H-pyran-4-yl)-1H-imidazo[4,5-c]cinnolin-2(3H)-one] is 16 nM; for `C[C@@H](OCCN1CCC2(CCC2)CC1)c1ccc(-c2ccc3nnc4c(c3c2)n(C2CCOCC2)c(=O)n4C)cn1` [Example 124, (R)-8-(6-(1-(2-(7-azaspiro[3.5]nonan-7-yl)ethoxy)ethyl)pyridin-3-yl)-3-methyl-1-(tetrahydro-2H-pyran-4-yl)-1H-imidazo[4,5-c]cinnolin-2(3H)-one] it is 1.1 nM. On the same count and under the same terms, the figure for `C[C@@H](OCCN1CCC2(CCO2)CC1)c1ccc(-c2ccc3nnc4c(c3c2)n(C2CCOCC2)c(=O)n4C)cn1` [Example 125, (R)-8-(6-(1-(2-(1-oxa-7-azaspiro[3.5]nonan-7-yl)ethoxy)ethyl)pyridin-3-yl)-3-methyl-1-(tetrahydro-2H-pyran-4-yl)-1H-imidazo[4,5-c]cinnolin-2(3H)-one] is 6.3 nM; for `C[C@H]1CCN(CCO[C@H](C)c2ccc(-c3ccc4nnc5c(c4c3)n(C3CCOCC3)c(=O)n5C)cn2)C1` [Example 126, 3-methyl-8-(6-((R)-1-(2-((S)-3-methylpyrrolidin-1-yl)ethoxy)ethyl)pyridin-3-yl)-1-(tetrahydro-2H-pyran-4-yl)-1H-imidazo[4,5-c]cinnolin-2(3H)-one] it is 20 nM; for `C[C@@H](OCCN1CC2(COC2)C1)c1ccc(-c2ccc3nnc4c(c3c2)n(C2CCOCC2)c(=O)n4C)cn1` [Example 127, (R)-8-(6-(1-(2-(2-oxa-6-azaspiro[3.3]heptan-6-yl)ethoxy)ethyl)pyridin-3-yl)-3-methyl-1-(tetrahydro-2H-pyran-4-yl)-1H-imidazo[4,5-c]cinnolin-2(3H)-one] it is 13 nM.

Regarding `C[C@@H](OCCN1CCC(C2COC2)CC1)c1ccc(-c2ccc3nnc4c(c3c2)n(C2CCOCC2)c(=O)n4C)cn1` [Example 128, (R)-3-methyl-8-(6-(1-(2-(4-(oxetan-3-yl)piperidin-1-yl)ethoxy)ethyl)pyridin-3-yl)-1-(tetrahydro-2H-pyran-4-yl)-1H-imidazo[4,5-c]cinnolin-2(3H)-one], the IC50 came out at 4.6 nM. Still for that read-out and setting: the figure for `C[C@@H](OCCN1CCC(C)(C#N)C1)c1ccc(-c2ccc3nnc4c(c3c2)n(C2CCOCC2)c(=O)n4C)cn1` (stereo partly drawn) [Example 130, 3-methyl-1-(2-((R)-1-(5-(3-methyl-2-oxo-1-(tetrahydro-2H-pyran-4-yl)-2,3-dihydro-1H-imidazo[4.5-c]cinnolin-8-yl)pyridin-2-yl)ethoxy)ethyl) pyrrolidine-3-carbonitrile] is 26 nM. The same measure, in the same setting: then `CC(C)n1c(=O)n(C)c2nnc3cc(F)c(-c4ccc(COCCN5CCC(C)(C)C5)nc4)cc3c21` [Example 132, 8-(6-((2-(3,3-dimethylpyrrolidin-1-yl)ethoxy)methyl)pyridin-3-yl)-7-fluoro-1-isopropyl-3-methyl-1H-imidazo[4,5-c]cinnolin-2(3H)-one], with 22 nM; and `CC(C)n1c(=O)n(C)c2nnc3cc(F)c(-c4ccc([C@@H](C)OCCN5CCC(F)CC5)nc4)cc3c21` [Example 136, (R)-7-fluoro-8-(6-(1-(2-(4-fluoropiperidin-1-yl)ethoxy)ethyl)pyridin-3-yl)-1-isopropyl-3-methyl-1,3-dihydro-2H-imidazo[4,5-c]cinnolin-2-one], with 10 nM; and `CO[C@H]1CCN(CCO[C@H](C)c2ccc(-c3cc4c(cc3F)nnc3c4n(C(C)C)c(=O)n3C)cn2)C1` [Example 138, 7-fluoro-1-isopropyl-8-(6-((R)-1-(2-((S)-3-methoxypyrrolidin-1-yl)ethoxy)ethyl)pyridin-3-yl)-3-methyl-1H-imidazo[4,5-c]cinnolin-2(3H)-one], with 14 nM. Regarding `CC(C)n1c(=O)n(C)c2nnc3cc(F)c(-c4ccc([C@@H](C)OCCN5CCC(C)(C)CC5)nc4)cc3c21` [Example 139, (R)-8-(6-(1-(2-(4,4-dimethylpiperidin-1-yl)ethoxy)ethyl)pyridin-3-yl)-7-fluoro-1-isopropyl-3-methyl-1H-imidazo[4,5-c]cinnolin-2(3H)-one], the IC50 came out at 2.8 nM.

Turning to `CC(C)n1c(=O)n(C)c2nnc3cc(F)c(-c4ccc([C@@H](C)OCCN5CCC(OC(F)(F)F)C5)nc4)cc3c21` (stereo partly drawn) [Example 141, 7-fluoro-1-isopropyl-3-methyl-8-(6-((1R)-1-(2-(3-(trifluoromethoxy)pyrrolidin-1-yl)ethoxy)ethyl)pyridin-3-yl)-1H-imidazo[4,5-c]cinnolin-2(3H)-one], the half-maximal inhibitory concentration (IC50) is 6.3 nM. Consider `CC(C)n1c(=O)n(C)c2nnc3cc(F)c(-c4ccc([C@@H](C)OCCN5CC6CC6C5)nc4)cc3c21` (stereo partly drawn) [Example 143, 8-(6-((1R)-1-(2-(3-azabicyclo[3.1.0]hexan-3-yl)ethoxy)ethyl)pyridin-3-yl)-7-fluoro-1-isopropyl-3-methyl-1H-imidazo[4,5-c]cinnolin-2(3H)-one], for which the IC50 came to 11 nM. Same read-out and setting: then `CC(C)n1c(=O)n(C)c2nnc3cc(F)c(-c4ccc([C@@H](C)OCCN5CCC(C)(C#N)C5)nc4)cc3c21` (stereo partly drawn) [Example 147, 1-(2-((R)-1-(5-(7-fluoro-1-isopropyl-3-methyl-2-oxo-2,3-dihydro-1H-imidazo[4,5-c]cinnolin-8-yl)pyridin-2-yl)ethoxy)ethyl)-3-methylpyrrolidine-3-carbonitrile], with 23 nM; and `C[C@@H](OCCN1CCC(C)(C)CC1)c1ccc(-c2cc3c(cc2F)nnc2c3n(C3CCOCC3)c(=O)n2C)cn1` [Example 149, (R)-8-(6-(1-(2-(4,4-dimethylpiperidin-1-yl)ethoxy)ethyl)pyridin-3-yl)-7-fluoro-3-methyl-1-(tetrahydro-2H-pyran-4-yl)-1H-imidazo[4,5-c]cinnolin-2(3H)-one], with 15 nM. On the same count and under the same terms, then `C[C@@H](OCCN1CCC2(CC1)CC2)c1ccc(-c2cc3c(cc2F)nnc2c3n(C3CCOCC3)c(=O)n2C)cn1` [Example 154, (R)-8-(6-(1-(2-(6-azaspiro[2.5]octan-6-yl)ethoxy)ethyl)pyridin-3-yl)-7-fluoro-3-methyl-1-(tetrahydro-2H-pyran-4-yl)-1H-imidazo[4,5-c]cinnolin-2(3H)-one], with 3.6 nM; and `C[C@@H](OCCN1CC[C@@H](OC(F)F)C1)c1ccc(-c2cc3c(cc2F)nnc2c3n(C3CCOCC3)c(=O)n2C)cn1` [Example 155, 8-(6-((R)-1-(2-((R)-3-(difluoromethoxy)pyrrolidin-1-yl)ethoxy)ethyl)pyridin-3-yl)-7-fluoro-3-methyl-1-(tetrahydro-2H-pyran-4-yl)-1H-imidazo[4,5-c]cinnolin-2(3H)-one], with 11 nM.

For the molecule `C[C@@H](OCCN1CCC2(CCC2)CC1)c1ccc(-c2cc3c(cc2F)nnc2c3n(C3CCOCC3)c(=O)n2C)cn1` [Example 156, (R)-8-(6-(1-(2-(7-azaspiro[3.5]nonan-7-yl)ethoxy)ethyl)pyridin-3-yl)-7-fluoro-3-methyl-1-(tetrahydro-2H-pyran-4-yl)-1H-imidazo[4,5-c]cinnolin-2(3H)-one], the IC50 came to 6 nM. Still for that read-out and setting: the figure for `CO[C@H]1C[C@H](n2c(=O)n(C)c3nnc4ccc(-c5ccc([C@@H](C)OCCN6CCC7(CC7)C6)nc5)cc4c32)C1` [Example 161, 8-(6-((R)-1-(2-(5-azaspiro[2.4]heptan-5-yl)ethoxy)ethyl)pyridin-3-yl)-1-(trans-3-methoxycyclobutyl)-3-methyl-1H-imidazo[4,5-c]cinnolin-2(3H)-one] is 3.4 nM. The same measure, in the same setting: then `CO[C@@H]1CCN(CCO[C@H](C)c2ccc(-c3ccc4nnc5c(c4c3)n([C@H]3C[C@H](OC)C3)c(=O)n5C)cn2)C1` [Example 163, 1-(trans-3-methoxycyclobutyl)-8-(6-((R)-1-(2-((R)-3-methoxypyrrolidin-1-yl)ethoxy)ethyl)pyridin-3-yl)-3-methyl-1H-imidazo[4,5-c]cinnolin-2(3H)-one], with 7.9 nM; and `CO[C@H]1C[C@H](n2c(=O)n(C)c3nnc4ccc(-c5ccc([C@@H](C)OCCN6CCC7(CC6)CC7)nc5)cc4c32)C1` [Example 164, 8-(6-((R)-1-(2-(6-azaspiro[2.5]octan-6-yl)ethoxy)ethyl)pyridin-3-yl)-1-(trans-3-methoxycyclobutyl)-3-methyl-1H-imidazo[4,5-c]cinnolin-2(3H)-one], with 2.2 nM; and `CO[C@H]1C[C@H](n2c(=O)n(C)c3nnc4ccc(-c5ccc(COCCN(C)C)nc5)cc4c32)C1` [Example 165, 8-(6-((2-(dimethylamino)ethoxy)methyl)pyridin-3-yl)-1-(trans-3-methoxycyclobutyl)-3-methyl-1H-imidazo[4,5-c]cinnolin-2(3H)-one], with 101 nM. The same measure, in the same setting: then `CO[C@H]1C[C@H](n2c(=O)n(C)c3nnc4ccc(-c5ccc(COCCN6CCCC6)nc5)cc4c32)C1` [Example 166, 1-(trans-3-methoxycyclobutyl)-3-methyl-8-(6-((2-(pyrrolidin-1-yl)ethoxy)methyl)pyridin-3-yl)-1H-imidazo[4,5-c]cinnolin-2(3H)-one], with 58 nM; and `CO[C@H]1C[C@H](n2c(=O)n(C)c3nnc4ccc(-c5ccc(COCCN6CCC(F)CC6)nc5)cc4c32)C1` [Example 168, 8-(6-((2-(4-fluoropiperidin-1-yl)ethoxy)methyl)pyridin-3-yl)-1-(trans-3-methoxycyclobutyl)-3-methyl-1H-imidazo[4,5-c]cinnolin-2(3H)-one], with 48 nM.
